# From patent publication US10444149B2, “Fluorescent compounds as sensing agents” (OHIO NORTHERN UNIVERSITY, priority 2016, dated 2019)
# Marks after values point to notes of the source that are not given here.
# What was measured:
# [1] = Detection of lead in methanol extract of soil
# Description: A lead-free soil sample was collected, placed into a Buchner funnel, and soaked with 1 mL of 0.15 M Pb(NO3)2 in water to introduce lead to the soil. As a control sample, the same was performed with the lead-free soil without exposure to Pb^2+. After soaking, the soil samples were washed with 50 mL of methanol. A sample from each filtrate was diluted in 3:1 tetrahydrofuran:methanol and exposed to Compound 25. […] This example illustrates that the substituted chromones described herein may be useful in detecting ions from soil extracts.
# [2] = Peak absorption wavelength, peak emission wavelength and fluorescent quantum yield; format: physicochemical; details: solvent dichloromethane
# From the text: Table 2 provides a peak absorption wavelength (λabs maximum), peak emission wavelength (λem maximum), a fluorescent quantum yield (ΦF), and a synthesis yield for the various compounds. The synthesis yield is based on the synthetic pathway illustrated in FIG. 1.
# [3] = Visual ion selectivity test, excited at 365 nm; details: 3:1 tetrahydrofuran:methanol
# Description: Compound 25 was dissolved in 3:1 tetrahydrofuran:methanol and then exposed to varying amounts of Zn/SO4 (i.e., Zn^2+), (NH4)2Fe(SO4)2.6H2O (i.e., Fe^2+), Fe2O3 (i.e., Fe^3+), CuSO4 (i.e., Cu^2+), or Pb(NO3)2 (i.e., Pb^2+) each in deionized water. Upon visual inspection when excited at 365 nm, the sample exposed to Pb^2+ turned green while all other samples remained blue.
# [4] = Emission spectrum on exposure to varying amounts of lead nitrate; details: 5 μM compound; 3:1 or 2:1 tetrahydrofuran:methanol; excitation 370 nm
# Description: Compound 20 was dissolved in methanol and then exposed to varying amounts of […] (i.e., Pb^2+). […] Therefore, a kit, method, system, or the like may utilize a specific solvent system for detection of lead or other Ions. Alternatively, and especially where the metal ion concentration is unknown, a kit, method, system, or the like may utilize a series of solvent systems in parallel to determine a concentration of metal ions.
# A 5 μM sample of Compound 25 in 3:1 tetrahydrofuran:methanol or 2:1 tetrahydrofuran:methanol was prepared and exposed to varying amounts of Pb(NO3)2 (i.e., Pb^2+) dissolved in deionized water.
# [5] = Visual detection limit, blue to green fluorescence change; details: 5 μM compound in 3:1 tetrahydrofuran:methanol; Pb(NO3)2 in deionized water
# Description: The detection limit Pb(NO3)2 (i.e., Pb^2+) for Compound 25 in 3:1 tetrahydrofuran:methanol was tested by exposing samples of 5 μM Compound 25 to ever decreasing concentrations of Pb(NO3)2 dissolved in deionized water.
# A 40 mM solution of Pb(NO3)2 (i.e., Pb^2+) was prepared in tap water and then diluted with 3:1 tetrahydrofuran:methanol to a lead concentration of 133 μM. The resultant sample was added to solutions of 5 μM sample of Compound 25 in 3:1 tetrahydrofuran:methanol. […] This example illustrates that the lead detection can be performed using tap water, which includes a variety of other ions.
# [6] = Extraction of lead from water with octanol and triethylamine; details: 3 mM Pb(NO3)2, 1 equivalent triethylamine
# Description: A 3 mM Pb(NO3)2 sample was prepared in deionized water and Compound 25 was added to give a green fluorescence. The lead was then extracted from the water using either 1-octanol or 2-octanol each with 1 equivalent (relative to Compound 25) of triethylamine, which turned the octanol portion green. After washing thrice with 1-octanol, 99% of the Pb^2+ had been extracted from the water. After washing twice with 2-octanol, 83% of the Pb^2+ had been extracted from the water.
compound,measurement,setting,value
"COC(=O)C(C)(C)C1Oc2ccc(OC)cc2C(=O)/C1=C\NS(=O)(=O)c1ccc(OC)cc1 (stereo not shown) [Compound 25, (Z)methyl-2-(6-methoxy-3-(((4-methoxyphenyl)sulfonamido)methy-lene)-4-oxochroman-2-yl)-2-methylpropanoate]",color change with soil extract,"[1]; extract from soil exposed to Pb^2+, diluted in 3:1 tetrahydrofuran:methanol",color change from blue to green
same,color change with soil extract,"[1]; extract from soil not exposed to Pb^2+, same dilution",no color change
same,ΦF,[2],69* %
same,λabs maximum,[2],392 nm
same,λem maximum,[2],527 nm
same,fluorescence colour of sample exposed to Cu^2+,[3],remained blue
same,fluorescence colour of sample exposed to Fe^2+,[3],remained blue
same,fluorescence colour of sample exposed to Fe^3+,[3],remained blue
same,fluorescence colour of sample exposed to Zn^2+,[3],remained blue
same,selectivity among heavy metal ions,"[3]; Zn^2+, Fe^2+, Fe^3+, Cu^2+, Pb^2+ compared",selectivity for Pb^2+ ions over other heavy metal ions
same,fluorescence colour of sample exposed to Pb^2+,[3]; excited at 365 nm,turned green
same,change of peak emission in the presence of Pb^2+,[4],red-shift and intensity decrease
same,visual change of fluorescence colour,[4],blue to green
same,speed of the color change,[5],almost instantaneous
same,Pb^2+ extracted from the water,[6]; washing thrice with 1-octanol,99%
same,Pb^2+ extracted from the water,[6]; washing twice with 2-octanol,83%
